Where two headings read alike, the source gives them in different places.
What was measured:
[1] = tested on: Blumeria graminis f. sp. tritici (Erysiphe graminis f. sp. tritici); test: Blumeria graminis f. sp. tritici/Wheat/Leaf Disc Preventative (Powdery Mildew on Wheat); format: in vivo; details: foliar, wheat leaf disc preventative, compared to untreated control
Method: Wheat leaf segments cv. Kanzler are placed on agar in a multiwell plate (24-well format) and sprayed with the formulated test compound diluted in water. The leaf disks are inoculated by shaking powdery mildew infected plants above the test plates 1 day after application. The inoculated leaf disks are incubated at 20° C. and 60% rh under a light regime of 24 h darkness followed by 12 h light/12 h darkness in a climate chamber and the activity of a compound is assessed as percent disease control compared to untreated when an appropriate level of disease damage appears on untreated check leaf segments (6-8 days after application).

[2] = tested on: Phaeosphaeria nodorum (Septoria nodorum); test: Phaeosphaeria nodorum (Septoria nodorum)/Wheat/Leaf Disc Preventative (Glume Blotch); format: in vivo; details: Parastagonospora nodorum, foliar, wheat leaf disc preventative, compared to untreated control
Method: Wheat leaf segments cv. Kanzler are placed on agar in a multiwell plate (24-well format) and sprayed with the formulated test compound diluted in water. The leaf disks are inoculated with a spore suspension of the fungus 2 days after application. The inoculated test leaf disks are incubated at 20° C. and 75% rh under a light regime of 12 h light/12 h darkness in a climate cabinet and the activity of a compound is assessed as percent disease control compared to untreated when an appropriate level of disease damage appears in untreated check leaf disks (5-7 days after application).

[3] = tested on: Monographella nivalis (Microdochium nivale); test: Monographella nivalis (Microdochium nivale)/Liquid Culture (Foot Rot Cereals); format: cell-based; details: liquid culture, compared to untreated control
Method: (§1) Conidia of the fungus from cryogenic storage are directly mixed into nutrient broth (PDB potato dextrose broth). After placing a (DMSO) solution of test compound into a microtiter plate (96-well format), the nutrient broth containing the fungal spores is added.

[4] = tested on: Mycosphaerella arachidis (Cercospora arachidicola); test: Mycosphaerella arachidis (Cercospora arachidicola)/Liquid Culture (Early Leaf Spot); format: cell-based; details: liquid culture, compared to untreated control
Method: as §1

Phakopsora pachyrhizi = test: Phakopsora pachyrhizi/Soybean/Preventative (Soybean Rust); format: in vivo; details: 288 h
Phytophthora infestans = test: whole plant or invertebrate; format: in vivo; details: in Solanum lycopersicum, foliar, read-out: control of Phytophthora infestans
Plasmopara viticola = test: whole plant or invertebrate; format: in vivo; details: foliar, read-out: control of Plasmopara viticola
[5] = tested on: Puccinia recondita f. sp. tritici; test: Puccinia recondita f. sp. tritici/Wheat/Leaf Disc Preventative (Brown Rust); format: in vivo; details: foliar; for pest or weed control at 200 ppm: wheat leaf disc preventative, compared to untreated control, read-out: control of Puccinia recondita f. sp. tritici
[6] = tested on: Mycosphaerella graminicola (Septoria tritici); test: Mycosphaerella graminicola (Septoria tritici)/Liquid Culture (Septoria Blotch); format: cell-based; details: Zymoseptoria tritici; for inhibition of growth at 20 ppm: liquid culture, compared to untreated control
Method: Conidia of the fungus from cryogenic storage are directly mixed into nutrient broth (PDB potato dextrose broth). After placing a (DMSO) solution of test compound into a microtiter plate (96-well format), the nutrient broth containing the fungal spores is added. […] The data are presented as the percentage of disease control of each compound for the biological tests against G. lagenarium (Example B3), P. recondita preventative (Example B13), P. teres (Example B15) and M. graminicola (Example B19) as described above. The testing rates of each biological test is specifically described in table C1 below.

[7] = tested on: Magnaporthe grisea (Pyricularia oryzae); test: whole plant or invertebrate; format: in vivo; details: foliar, read-out: control of Magnaporthe grisea
[8] = tested on: Glomerella lagenarium (Colletotrichum lagenarium); test: Glomerella lagenarium (Colletotrichum lagenarium)/Liquid Culture (Anthracnose); format: cell-based; details: Colletotrichum orbiculare, liquid culture, compared to untreated control
[9] = foliar, soybean leaf disc preventative, compared to untreated control, read-out: control of Phakopsora pachyrhizi
[10] = Phakopsora pachyrhizi (Soybean rust)
[11] = Phakopsora pachyrhizi (Soybean rust), read-out: control (%)

SMILES | pest or weed control at 200 ppm [1] [%] | pest or weed control at 200 ppm [2] [%] | inhibition of growth at 20 ppm [3] [%] | inhibition of growth at 20 ppm [4] [%] | pest or weed control at 200 ppm (Phytophthora infestans) [%] | pest or weed control at 200 ppm (Plasmopara viticola) [%] | pest or weed control at 200 ppm [5] [%] | inhibition of growth at 20 ppm [6] [%] | melting point [°C] | further results
CO/C=C(\Oc1cc(-n2ccc(C(F)(F)F)n2)cc(F)c1C)C(=O)OC [Compound E-3, methyl (Z)-2-[3-fluoro-2-methyl-5-[3-(trifluoromethyl)pyrazol-1-yl]phenoxy]-3-methoxy-prop-2-enoate] | ≥ 80 | ≥ 80 | ≥ 80 | ≥ 80 | ≥ 80 | ≥ 80 | ≥ 80 | ≥ 80 | 133 to 135 | pest or weed control at 200 ppm (Phakopsora pachyrhizi; [9]): ≥ 50%
CCC(CC)c1ccn(-c2ccc(C)c(O/C(=C\OC)C(=O)OC)c2)n1 [Compound E-4, methyl (Z)-2-[5-[3-(1-ethylpropyl)pyrazol-1-yl]-2-methyl-phenoxy]-3-methoxy-prop-2-enoate] | ≥ 80 | ≥ 80 | ≥ 80 | ≥ 80 | ≥ 80 | – | ≥ 80 | ≥ 80 | 108 to 111 | pest or weed control at 200 ppm (Phakopsora pachyrhizi; [9]): ≥ 50%
CO/C=C(\Oc1cccc(-n2ccc(C)n2)c1)C(=O)OC [Compound E-9, methyl (Z)-3-methoxy-2-[3-(3-methylpyrazol-1-yl)phenoxy]prop-2-enoate] | – | – | ≥ 80 | ≥ 80 | – | – | – | ≥ 80 | – | –
CO/C=C(\Oc1cc(-n2cc(Br)c(C3CCCCC3)n2)ccc1C)C(=O)OC [Compound E-10, methyl (Z)-2-[5-(4-bromo-3-cyclohexyl-pyrazol-1-yl)-2-methyl-phenoxy]-3-methoxy-prop-2-enoate] | – | – | ≥ 80 | ≥ 80 | – | – | – | ≥ 80 | 120 to 126 | pest or weed control at 200 ppm [7]: ≥ 80%
CCCOc1ccn(-c2ccc(C)c(O/C(=C\OC)C(=O)OC)c2)n1 [Compound E-13, methyl (Z)-3-methoxy-2-[2-methyl-5-(3-propoxypyrazol-1-yl)phenoxy]prop-2-enoate] | – | – | – | – | – | – | – | – | 85 to 87 | –
CO/C=C(\Oc1cccc(-n2ccc(C3CC3)n2)c1)C(=O)OC [Compound E-14, methyl (Z)-2-[3-(3-cyclopropylpyrazol-1-yl)phenoxy]-3-methoxy-prop-2-enoate] | – | – | ≥ 80 | ≥ 80 | – | – | – | ≥ 80 | – | inhibition of growth at 20 ppm [8]: ≥ 80%
CO/C=C(\Oc1cc(-n2ccc(C(F)(F)F)n2)cc(OC)c1C)C(=O)OC [Compound E-22, methyl (Z)-3-methoxy-2-[3-methoxy-2-methyl-5-[3-(trifluoromethyl)pyrazol-1-yl]phenoxy]prop-2-enoate] | ≥ 80 | – | ≥ 80 | ≥ 80 | ≥ 80 | – | ≥ 80 | ≥ 80 | 153 to 156 | –
CO/C=C(\Oc1cc(-n2ccc(CSC)n2)ccc1C)C(=O)OC [Compound E-76, methyl (Z)-3-methoxy-2-[2-methyl-5-[3-(methylsulfanylmethyl)pyrazol-1-yl]phenoxy]prop-2-enoate] | – | – | ≥ 80 | ≥ 80 | ≥ 80 | ≥ 80 | ≥ 80 | ≥ 80 | 78 to 80 | pest or weed control at 200 ppm [7]: ≥ 80%
CO/C=C(\Oc1cc(-n2ccc(Br)n2)ccc1Br)C(=O)OC [Compound E-84, methyl (Z)-2-[2-bromo-5-(3-bromopyrazol-1-yl)phenoxy]-3-methoxy-prop-2-enoate] | ≥ 80 | ≥ 80 | ≥ 80 | ≥ 80 | – | ≥ 80 | ≥ 80 | ≥ 80 | – | inhibition of growth at 20 ppm [8]: ≥ 80%; pest or weed control at 200 ppm (Phakopsora pachyrhizi; [9]): ≥ 50%
CO/C=C(\Oc1cc(-n2ccc(C)n2)ccc1C1CC1)C(=O)OC [Compound E-106, methyl (Z)-2-[2-cyclopropyl-5-(3-methylpyrazol-1-yl)phenoxy]-3-methoxy-prop-2-enoate] | – | – | – | – | – | ≥ 80 | ≥ 80 | – | 189 to 191 | –
CCc1ccc(-n2ccc(C)n2)cc1O/C(=C\OC)C(=O)OC [Compound E-107, methyl (Z)-2-[2-ethyl-5-(3-methylpyrazol-1-yl)phenoxy]-3-methoxy-prop-2-enoate] | – | – | – | – | – | – | ≥ 80 | ≥ 80 | 169 to 171 | –
CO/C=C(\Oc1cc(-n2cc(Cl)c(Cl)n2)ccc1C)C(=O)OC [Compound E-111, methyl (Z)-2-[5-(3,4-dichloropyrazol-1-yl)-2-methyl-phenoxy]-3-methoxy-prop-2-enoate] | ≥ 80 | ≥ 80 | ≥ 80 | ≥ 80 | – | ≥ 80 | – | – | 140 to 144 | inhibition of growth at 20 ppm [8]: ≥ 80%
CO/C=C(\Oc1cc(-n2ncc(C(F)(F)F)n2)ccc1C)C(=O)OC [Compound F-6, methyl (Z)-3-methoxy-2-[2-methyl-5-[4-(trifluoromethyl)triazol-2-yl]phenoxy]prop-2-enoate] | ≥ 80 | ≥ 80 | ≥ 80 | ≥ 80 | ≥ 80 | ≥ 80 | – | ≥ 80 | 107 to 109 | inhibition of growth at 20 ppm [8]: ≥ 80%; pest or weed control at 0.6 ppm (Phakopsora pachyrhizi; [10]): 0%; pest or weed control at 2 ppm (Phakopsora pachyrhizi; [10]): 0%; pest or weed control at 6 ppm (Phakopsora pachyrhizi; [10]): 20%; pest or weed control at 20 ppm (Phakopsora pachyrhizi; [10]): 80%; pest or weed control at 60 ppm (Phakopsora pachyrhizi; [10]): 100%; pest or weed control at 200 ppm (Phakopsora pachyrhizi; [11]): 100%; pest or weed control at 200 ppm [7]: ≥ 80%
CO/C=C(\Oc1cc(-n2cccc2)ccc1C)C(=O)OC [Compound X-2, reference compound] | – | – | – | – | – | – | – | – | – | pest or weed control at 0.6 ppm (Phakopsora pachyrhizi; [10]): 0%; pest or weed control at 2 ppm (Phakopsora pachyrhizi; [10]): 0%; pest or weed control at 6 ppm (Phakopsora pachyrhizi; [10]): 0%; pest or weed control at 20 ppm (Phakopsora pachyrhizi; [10]): 0%; pest or weed control at 60 ppm (Phakopsora pachyrhizi; [10]): 70%; pest or weed control at 200 ppm (Phakopsora pachyrhizi; [11]): 100%
CO/C=C(\Oc1cc(-c2cccc(C(F)(F)F)n2)ccc1C)C(=O)OC [Compound X-3, reference compound] | – | – | – | – | – | – | – | – | – | pest or weed control at 0.6 ppm (Phakopsora pachyrhizi; [10]): 0%; pest or weed control at 2 ppm (Phakopsora pachyrhizi; [10]): 0%; pest or weed control at 6 ppm (Phakopsora pachyrhizi; [10]): 0%; pest or weed control at 20 ppm (Phakopsora pachyrhizi; [10]): 10%; pest or weed control at 60 ppm (Phakopsora pachyrhizi; [10]): 50%; pest or weed control at 200 ppm (Phakopsora pachyrhizi; [11]): 85%
CCCc1ccn(-c2ccc(C)c(O/C(=C\OC)C(=O)OC)c2)n1 [drawing 151] | – | – | – | – | – | – | – | – | – | pest or weed control at 60 ppm ([5]; P. recondita prev (B13), 60 ppm, read-out: Disease control (%)): 70%; inhibition of growth at 6 ppm ([6]; M. graminicola (B19), 6 ppm, read-out: Disease control (%)): 100%
